From patent publication US9133163B2, “Dihydropyrazole GPR40 modulators” (Bristol-Myers Squibb Company, priority 2012, dated 2015) come the findings set out here.

The target of this assay is hGPR40 (Homo sapiens, UniProt O14842). Briefly: FDSS-based intracellular calcium assay. The format is cell-based. Also on record: 3xFLAG; expressed in transfected cells. The settings on record: intracellular Ca2+ response, cells expressing GPR40. The procedure: FDSS-Based Intracellular Calcium Assay
Sequence of hGPR40 (O14842 whole entry): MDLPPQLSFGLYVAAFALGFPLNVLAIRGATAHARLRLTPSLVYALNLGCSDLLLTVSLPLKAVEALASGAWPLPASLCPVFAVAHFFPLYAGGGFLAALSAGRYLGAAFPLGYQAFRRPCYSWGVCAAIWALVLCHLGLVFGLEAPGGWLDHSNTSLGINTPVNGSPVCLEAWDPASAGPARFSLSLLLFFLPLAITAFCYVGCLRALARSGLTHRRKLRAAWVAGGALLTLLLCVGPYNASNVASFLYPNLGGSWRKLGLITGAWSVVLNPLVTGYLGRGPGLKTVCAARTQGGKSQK
Compounds are dissolved in DMSO and diluted to desired concentrations with assay buffer and added to the cells as 3× solution (20 μL per well). Run fluorescence/luminescence reader FDSS (Hamamatsu) to read intracellular Ca^2+ response.
(In general: Calcium assays in cells follow changes in intracellular calcium, usually with a dye or a luminescent sensor.)
A word on the EC50: it is the concentration at which the effect is half-maximal. For the compound `COc1cc(F)c(F)c(N2CCC(Oc3ccc(N4N=C(C(F)(F)F)[C@@H](C)[C@@H]4CC(=O)O)cc3)C(C)C2)c1` (single isomer, unassigned) [Example 8 (Isomer 1)], the EC50 is 796 nM.
Then `COc1cc(F)c(F)c(N2CCC(Oc3ccc(N4N=C(C(F)(F)F)[C@@H](C)[C@@H]4CC(=O)O)cc3)C(C)C2)c1` (single isomer, unassigned) [Example 8 (Isomer 2)], with 237 nM; and `CCOc1cc(F)c(F)c(N2CCC(Oc3ccc(N4N=C(C(F)(F)F)[C@@H](C)[C@@H]4CC(=O)O)cc3)C(C)C2)c1` (single isomer, unassigned) [Example 10 (Isomer 1)], with 1200 nM; and `CCOc1cc(F)c(F)c(N2CCC(Oc3ccc(N4N=C(C(F)(F)F)[C@@H](C)[C@@H]4CC(=O)O)cc3)C(C)C2)c1` (single isomer, unassigned) [Example 10 (Isomer 2)], with 315 nM.
Then `COc1ccc(F)c(N2CCC(Oc3ccc(N4N=C(c5ncccn5)C(C)C4CC(=O)O)cc3)CC2)c1` (single isomer, unassigned) [Example 22, Isomer 1, 2-(1-(4-((1-(2-Fluoro-5-methoxyphenyl)piperidin-4-yl)oxy)phenyl)-4-methyl-3-(pyrimidin-2-yl)-4,5-dihydro-1H-pyrazol-5-yl)acetic acid], with 2040 nM; and `COc1ccc(F)c(N2CCC(Oc3ccc(N4N=C(c5ncccn5)C(C)C4CC(=O)O)cc3)CC2)c1` (single isomer, unassigned) [Example 22, Isomer 2, 2-(1-(4-((1-(2-Fluoro-5-methoxyphenyl)piperidin-4-yl)oxy)phenyl)-4-methyl-3-(pyrimidin-2-yl)-4,5-dihydro-1H-pyrazol-5-yl)acetic acid], with 5570 nM; and `CCOc1ccc(F)c(N2CCC(Oc3ccc(N4N=C(C(F)(F)F)[C@@H](C)[C@@H]4CC(=O)O)cc3)C(CC)C2)c1` (single isomer, unassigned) [Example 25 (Isomer 1)], with 1020 nM.
Then `CCOc1ccc(F)c(N2CCC(Oc3ccc(N4N=C(C(F)(F)F)[C@@H](C)[C@@H]4CC(=O)O)cc3)C(C(C)C)C2)c1` (single isomer, unassigned) [Example 26 (Isomer 1)], with 1900 nM; and `CCOc1ccc(F)c(N2CCC(Oc3ccc(N4N=C(C(F)(F)F)[C@@H](C)[C@@H]4CC(=O)O)cc3)C(C(C)C)C2)c1` (single isomer, unassigned) [Example 26 (Isomer 2)], with 82 nM; and `COc1ccc(F)c(N2CCC(Oc3ccc(N4N=C(C(F)(F)F)[C@@H](C)[C@@H]4CC(=O)O)cc3)C(F)C2)c1` (single isomer, unassigned) [Example 57 (Isomer 1)], with 292 nM.
`COc1ccc(F)c(N2CCC(Oc3ccc(N4N=C(C(F)(F)F)[C@@H](C)[C@@H]4CC(=O)O)cc3)C(F)C2)c1` (single isomer, unassigned) [Example 57 (Isomer 2)]: the EC50 is 119 nM.
Under `COc1ccc(F)c(N2CCC(Oc3ccc(N4N=C(C(F)(F)F)[C@@H](C)[C@@H]4CC(=O)O)cc3)C(F)C2)c1` (single isomer, unassigned) [Example 57 (Isomer 3)] stands 716 nM.
Under `CCC1C(C(F)(F)F)=NN(c2ccc(OC3CCN(c4cc(OC)ncc4Cl)CC3C)cc2)C1CC(=O)O` (single isomer, unassigned) [Example 86, Isomer 1, 2-(1-(4-((1-(5-Chloro-2-methoxypyridin-4-yl)-3-methylpiperidin-4-yl)oxy)phenyl)-4-ethyl-3-(trifluoromethyl)-4,5-dihydro-1H-pyrazol-5-yl)acetic acid] stands 73 nM; under `CCC1C(C(F)(F)F)=NN(c2ccc(OC3CCN(c4cc(OC)ncc4Cl)CC3C)cc2)C1CC(=O)O` (single isomer, unassigned) [Example 86, Isomer 2, 2-(1-(4-((1-(5-Chloro-2-methoxypyridin-4-yl)-3-methylpiperidin-4-yl)oxy)phenyl)-4-ethyl-3-(trifluoromethyl)-4,5-dihydro-1H-pyrazol-5-yl)acetic acid], 599 nM; under `CCC1C(C(F)(F)F)=NN(c2ccc(OC3CCN(c4cc(OC)ncc4Cl)CC3C)cc2)C1CC(=O)O` (single isomer, unassigned) [Example 86, Isomer 3, 2-(1-(4-((1-(5-Chloro-2-methoxypyridin-4-yl)-3-methylpiperidin-4-yl)oxy)phenyl)-4-ethyl-3-(trifluoromethyl)-4,5-dihydro-1H-pyrazol-5-yl)acetic acid], 1930 nM.
`CC[C@@H]1C(C(F)(F)F)=NN(c2ccc(OC3CCN(c4cc(OC)ccc4F)CC3)cc2)[C@H]1CC(=O)O` (single isomer, unassigned) [Example 88, Isomer 2]: the EC50 turned out to be 7450 nM.
Regarding `COc1ccc(F)c(N2CCC(Oc3ccc(N4N=C(C(F)(F)F)[C@@H](CC(C)C)[C@@H]4CC(=O)O)cc3)CC2)c1` (single isomer, unassigned) [Example 89, Isomer 1], the half-maximal effective concentration (EC50) is 7960 nM.
For the compound `COc1ccc(F)c(N2CCC(Oc3ccc(N4N=C(C(F)(F)F)[C@@H](CC(C)C)[C@@H]4CC(=O)O)cc3)CC2)c1` (single isomer, unassigned) [Example 89, Isomer 2], the half-maximal effective concentration (EC50) is 390 nM.
`COc1ccc(F)c(N2CCC(Oc3ccc(N4N=C(C(F)(F)F)[C@@H](CC5CC5)[C@@H]4CC(=O)O)cc3)CC2)c1` (single isomer, unassigned) [Example 90, Isomer 1]: the EC50 amounted to 1630 nM.
Then `COc1ccc(F)c(N2CCC(Oc3ccc(N4N=C(C(F)(F)F)[C@@H](CC5CC5)[C@@H]4CC(=O)O)cc3)CC2)c1` (single isomer, unassigned) [Example 90, Isomer 2], with 156 nM.
Then `COc1cc(N2CCC(Oc3ccc(N4N=C(C(F)(F)F)[C@@H](C)[C@@H]4CC(=O)O)cc3)C(F)C2)c(Cl)cn1` (single isomer, unassigned) [Example A1, Isomer 1], with 184 nM.
Then `COc1cc(N2CCC(Oc3ccc(N4N=C(C(F)(F)F)[C@@H](C)[C@@H]4CC(=O)O)cc3)C(F)C2)c(Cl)cn1` (single isomer, unassigned) [Example A1, Isomer 2], with 218 nM; and `CC(C)Oc1ccc(F)c(N2CCC(Oc3ccc(N4N=C(C(F)(F)F)[C@@H](C)[C@@H]4CC(=O)O)cc3)CC2)c1` [Example 9, 2-((4S,5S)-1-(4-((1-(2-Fluoro-5-isopropoxyphenyl)piperidin-4-yl)oxy)phenyl)-4-methyl-3-(trifluoromethyl)-4,5-dihydro-1H-pyrazol-5-yl)acetic acid], with 374 nM.
For `CC(C)COc1cc(F)c(F)c(N2CCC(Oc3ccc(N4N=C(C(F)(F)F)[C@@H](C)[C@@H]4CC(=O)O)cc3)CC2)c1` [Example 18, 2-((4S,5S)-1-(4-((1-(2,3-Difluoro-5-isobutoxyphenyl)piperidin-4-yl)oxy)phenyl)-4-methyl-3-(trifluoromethyl)-4,5-dihydro-1H-pyrazol-5-yl)acetic acid], the EC50 amounted to 4760 nM.
Take `COc1ccc(C#N)c(N2CCC(Oc3ccc(N4N=C(C(F)(F)F)[C@@H](C)[C@@H]4CC(=O)O)cc3)CC2)c1` [Example 21, 2-((4S,5S)-1-(4-((1-(2-Cyano-5-methoxyphenyl)piperidin-4-yl)oxy)phenyl)-4-methyl-3-(trifluoromethyl)-4,5-dihydro-1H-pyrazol-5-yl)acetic acid]: the concentration for a half-maximal effect (EC50) was 680 nM.
Under `CCOc1ccc(F)c(N2CC[C@H](Oc3ccc(N4N=C(C(F)(F)F)[C@@H](C)[C@@H]4CC(=O)O)cc3)[C@@H](C)C2)c1` [Example 30, 2-((4S,5S)-1-(4-(((3S,4S)-1-(5-Ethoxy-2-fluorophenyl)-3-methylpiperidin-4-yl)oxy)phenyl)-4-methyl-3-(trifluoromethyl)-4,5-dihydro-1H-pyrazol-5-yl)acetic acid] stands 1200 nM; under `CCOc1ccc(F)c(N2CCC(Oc3ccc(N4N=C(C(F)(F)F)[C@@H](C)[C@@H]4CC(=O)O)cc3)CC2)c1` [Example 32, 2-((4S,5S)-1-(4-((1-(5-Ethoxy-2-fluorophenyl)piperidin-4-yl)oxy)phenyl)-4-methyl-3-(trifluoromethyl)-4,5-dihydro-1H-pyrazol-5-yl)acetic acid], 217 nM.
For the compound `COc1ccc(Cl)c(N2CCC(Oc3ccc(N4N=C(C(F)(F)F)[C@@H](C)[C@@H]4CC(=O)O)cc3)CC2)c1` [Example 33, 2-((4S,5S)-1-(4-((1-(2-Chloro-5-methoxyphenyl)piperidin-4-yl)oxy)phenyl)-4-methyl-3-(trifluoromethyl)-4,5-dihydro-1H-pyrazol-5-yl)acetic acid], the concentration for a half-maximal effect (EC50) worked out at 103 nM.
Under `C[C@@H]1C(C(F)(F)F)=NN(c2ccc(OC3CCN(c4cc(Cl)ccc4Cl)CC3)cc2)[C@H]1CC(=O)O` [Example 35, 2-((4S,5S)-1-(4-((1-(2,5-Dichlorophenyl)piperidin-4-yl)oxy)phenyl)-4-methyl-3-(trifluoromethyl)-4,5-dihydro-1H-pyrazol-5-yl)acetic acid] stands 254 nM; under `C[C@@H]1C(C(F)(F)F)=NN(c2ccc(OC3CCN(c4ccccc4Cl)CC3)cc2)[C@H]1CC(=O)O` [Example 37, 2-((4S,5S)-1-(4-((1-(2-Chlorophenyl)piperidin-4-yl)oxy)phenyl)-4-methyl-3-(trifluoromethyl)-4,5-dihydro-1H-pyrazol-5-yl)acetic acid], 448 nM.
Under `C[C@@H]1C(C(F)(F)F)=NN(c2ccc(OC3CCN(c4cc(F)ccc4F)CC3)cc2)[C@H]1CC(=O)O` [Example 38, 2-((4S,5S)-1-(4-((1-(2,5-Difluorophenyl)piperidin-4-yl)oxy)phenyl)-4-methyl-3-(trifluoromethyl)-4,5-dihydro-1H-pyrazol-5-yl)acetic acid] stands 475 nM.
Under `Cc1ccccc1N1CCC(Oc2ccc(N3N=C(C(F)(F)F)[C@@H](C)[C@@H]3CC(=O)O)cc2)CC1` [Example 39, 2-((4S,5S)-4-Methyl-1-(4-((1-(o-tolyl)piperidin-4-yl)oxy)phenyl)-3-(trifluoromethyl)-4,5-dihydro-1H-pyrazol-5-yl)acetic acid] stands 498 nM.
